# Assay results reported in publication PMC11357256, “Selectivity Screening and Structure–Cytotoxic Activity Observations of Selected Oleanolic Acid (OA)-Type Saponins from the Amaranthaceae Family on a Wiade Panel of Human Cancer Cell Lines” (Molecules, 2024).
# What was measured:
# Du-145 = assay: MTT cell viability assay, Du-145 prostate carcinoma cells; format: cell-based; settings: Homo sapiens
# Description: (§1) Cell lines used in the study were grouped as follows: skin panel (melanomas: HTB140, derived from metastatic site: lymph node, ATCC Hs 294 T; malignant A375, ATCC CRL-1619; stage I primary WM793, RRID:CVCL 8787; skin keratinocytes HaCaT); prostate panel (prostate carcinomas: Du145, derived from metastatic site: brain, ATCC HTB-81; grade IV PC3, derived from metastatic site: bone, ATCC CRL-1435, LNCaP, derived from the metastatic site: lymph node, ATCC CRL-1740; prostate epithelial, PNT2, ECACC 95012613); gastrointestinal panel (colorectal adenocarcinomas: Caco2, ATCC HTB-37, HT29, ATCC HTB-38, DLD-1, ATCC CCL-221, HCT116, ATCC CCL-247, and colon epithelial cells CCD 841 CoN, ATCC CRL-1790; hepatocellular carcinoma HepG2, ATCC HB-8065); thyroid panel (follicular thyroid carcinoma FTC133, ECACC 9406090, undifferentiated thyroid carcinoma 8505C, ECACC 94090184, papillary thyroid carcinoma TPC-1, SCC147, normal thyroid follicular epithelial Nthy-ori 3–1, ECACC 90011609); and breast panel (ER-positive breast adenocarcinoma MCF7, ATCC HTB-22; ER-negative breast adenocarcinoma MDA-MB-231, ATCC HTB-26; breast epithelial MCF10A, ATCC CRL-10317). Cells were grown under standard conditions (37 °C, 5% CO2, relative humidity), and culture media (DMEM/F12 for PNT2, WM 793, HT29, PC3, FTC133, 8505 C, MDA-MB-231, TPC-1; DMEM Low Glucose for DU145; DMEM High Glucose for HTB140, A375, HaCaT; MEM with NEAA for Caco2 and MCF7; RPMI1640 with sodium pyruvate for LNCaP; DMEM/F12 with 20 ng/mL epidermal growth factor (EGF), 10 μg/mL insulin, 0.5 μg/mL hydrocortisone, 100 ng/mL cholera toxin) for MCF10A) supplemented with 10% fetal bovine serum (FBS) or 5% donor horse serum for MCF10A, and 1% antibiotics solution (10,000 U penicillin and 10 mg streptomycin/mL) […], as previously described. All cell lines, culture media, and supplements were from Sigma-Aldrich (Germany).
# (§2) The cells were seeded in 96-well plates (1.5 × 10^4 cells/well). After 24 h, fresh medium was added, containing the tested compounds (0.5–100 μg/mL) and incubated for 24 or 48 h. Cell viability was determined by MTT assay, according to the manufacturer’s instructions, as described previously. Each experiment was performed in triplicate. The absorbance was measured at 570 nm using a Biotek Synergy microplate reader (BioTek Instruments Inc., Winooski, VT, USA). Cell viability was expressed as a percent of control (untreated cells). Doxorubicin was used as a reference drug.
# MDA-MB-231 = assay: MTT cell viability assay, MDA-MB-231 breast adenocarcinoma cells; format: cell-based; settings: Homo sapiens
# Description: as §1, §2
# A375 = assay: MTT cell viability assay, A375 malignant melanoma cells; format: cell-based, human; settings: for IC50: Homo sapiens, A-375
# Description: as §1, §2
# (§3) The selectivity index (SI) was calculated from the following formula:SI = IC50 of compound in a normal cell line/IC50 of compound in cancer cell line.IC50, half maximal inhibitory concentration, is a concentration required to kill 50% of the cells.
# PNT2 = assay: MTT cell viability assay, PNT2 normal prostate epithelial cells; format: cell-based; settings: Homo sapiens
# Description: as §1, §2
# HCT116 = assay: MTT cell viability assay, HCT116 colon cancer cells; format: cell-based; settings: Homo sapiens, HCT-116
# Description: as §1, §2
# TPC-1 = assay: MTT cell viability assay, TPC-1 papillary thyroid carcinoma cells; format: cell-based, human; settings: for IC50: Homo sapiens, TPC1
# Description: as §1, §2, §3
# HepG2 = assay: MTT cell viability assay, HepG2 hepatocellular carcinoma cells; format: cell-based; settings: Homo sapiens
# Description: as §1, §2
# Nthy-ori 3-1 = assay: MTT cell viability assay, Nthy-ori 3-1 normal thyroid epithelial cells; format: cell-based; settings: Homo sapiens
# Description: as §1, §2
# CCD 841 CoN = assay: MTT cell viability assay, CCD 841 CoN normal colon epithelial cells; format: cell-based; settings: Homo sapiens
# Description: as §1, §2
# WM793 = assay: MTT cell viability assay, WM793 primary melanoma cells; format: cell-based, human; settings: for IC50: Homo sapiens
# Description: as §1, §2, §3
# HaCaT = assay: MTT cell viability assay, HaCaT keratinocytes; format: cell-based; settings: Homo sapiens
# Description: as §1, §2
# HT29 = assay: MTT cell viability assay, HT29 colorectal adenocarcinoma cells; format: cell-based; settings: Homo sapiens, HT-29
# Description: as §1, §2
# DLD-1 = assay: MTT cell viability assay, DLD-1 colon cancer cells; format: cell-based; settings: Homo sapiens
# Description: as §1, §2
# MCF10A = assay: MTT cell viability assay, MCF10A normal breast epithelial cells; format: cell-based; settings: Homo sapiens, MCF-10A
# Description: as §1, §2
# MCF7 = assay: MTT cell viability assay, MCF7 breast adenocarcinoma cells; format: cell-based; settings: Homo sapiens
# Description: as §1, §2
# LNCaP = assay: MTT cell viability assay, LNCaP prostate adenocarcinoma cells; format: cell-based; settings: Homo sapiens
# Description: as §1, §2
# 8505C = assay: MTT cell viability assay, 8505C undifferentiated thyroid carcinoma cells; format: cell-based, human; settings: for IC50: Homo sapiens, 8505C; for Selectivity Index (SI): IC50 Nthy-ori 3-1 / IC50 8505C
# Description: as §1, §2, §3
# PC3 = assay: MTT cell viability assay, PC3 prostate carcinoma cells; format: cell-based; settings: Homo sapiens, PC-3
# Description: as §1, §2
# FTC133 = assay: MTT cell viability assay, FTC133 follicular thyroid carcinoma cells; format: cell-based, human; settings: for IC50: Homo sapiens, FTC-133
# Description: as §1, §2, §3
# HTB-140 = assay: MTT cell viability assay, HTB-140 metastatic melanoma cells; format: cell-based, human; settings: for IC50: Homo sapiens
# Description: as §1, §2, §3
# Caco-2 = assay: MTT cell viability assay, Caco-2 colon cancer cells; format: cell-based; settings: Homo sapiens
# Description: as §1, §2
smiles,measurement,setting,value
"CC1(C)CC[C@]2(C(=O)O)CC[C@]3(C)C(=CC[C@@H]4[C@@]5(C)CC[C@H](O)C(C)(C)[C@@H]5CC[C@]43C)[C@@H]2C1 [OA, oleanolic acid]",IC50,"Du-145; DU-145, 24 h",23.4 µg/mL
same,IC50,"Du-145; DU-145, 48 h",12.2 µg/mL
same,IC50,"MDA-MB-231; MDA-MB-231, 24 h",> 100 µg/mL
same,IC50,"MDA-MB-231; MDA-MB-231, 48 h",38.5 µg/mL
same,IC50,"A375; A375, 24 h",2.2 µg/mL
same,IC50,"A375; A375, 48 h",0.9 µg/mL
same,Selectivity Index (SI),"A375; IC50 HaCaT / IC50 A375, 24 h",5.2
same,IC50,PNT2; 24 h,> 100 µg/mL
same,IC50,PNT2; 48 h,> 100 µg/mL
same,IC50,"HCT116; HCT116, 24 h",25.6 µg/mL
same,IC50,"HCT116; HCT116, 48 h",18.5 µg/mL
same,IC50,"TPC-1; TPC-1, 24 h",36.6 µg/mL
same,IC50,"TPC-1; TPC-1, 48 h",30 µg/mL
same,Selectivity Index (SI),"TPC-1; IC50 Nthy-ori 3-1 / IC50 TPC-1, 24 h",2.6
same,Selectivity Index (SI),"TPC-1; IC50 Nthy-ori 3-1 / IC50 TPC-1, 48 h",2.4
same,IC50,"HepG2; HepG2, 24 h",51.5 µg/mL
same,IC50,"HepG2; HepG2, 48 h",10.7 µg/mL
same,IC50,Nthy-ori 3-1; 24 h,94.4 µg/mL
same,IC50,Nthy-ori 3-1; 48 h,71.6 µg/mL
same,IC50,CCD 841 CoN; 24 h,> 100 µg/mL
same,IC50,CCD 841 CoN; 48 h,> 100 µg/mL
same,IC50,"WM793; WM793, 24 h",2.8 µg/mL
same,IC50,"WM793; WM793, 48 h",1.2 µg/mL
same,Selectivity Index (SI),"WM793; IC50 HaCaT / IC50 WM793, 24 h",4.0
same,Selectivity Index (SI),"WM793; IC50 HaCaT / IC50 WM793, 48 h",6.0
same,IC50,HaCaT; 24 h,11.2 µg/mL
same,IC50,HaCaT; 48 h,7.5 µg/mL
same,IC50,"HT29; HT29, 24 h",> 100 µg/mL
same,IC50,"HT29; HT29, 48 h",> 100 µg/mL
same,IC50,"DLD-1; DLD-1, 24 h",48.7 µg/mL
same,IC50,"DLD-1; DLD-1, 48 h",24.5 µg/mL
same,IC50,MCF10A; 24 h,> 100 µg/mL
same,IC50,MCF10A; 48 h,> 100 µg/mL
same,IC50,"MCF7; MCF7, 24 h",> 100 µg/mL
same,IC50,"MCF7; MCF7, 48 h",67 µg/mL
same,IC50,LNCaP; 24 h,> 100 µg/mL
same,IC50,LNCaP; 48 h,> 100 µg/mL
same,IC50,8505C; 24 h,19.5 µg/mL
same,IC50,8505C; 48 h,11.3 µg/mL
same,Selectivity Index (SI),8505C; 24 h,4.8
same,Selectivity Index (SI),8505C; 48 h,6.4
same,IC50,"PC3; PC3, 24 h",> 100 µg/mL
same,IC50,"PC3; PC3, 48 h",> 100 µg/mL
same,IC50,"FTC133; FTC133, 24 h",13.5 µg/mL
same,IC50,"FTC133; FTC133, 48 h",4.9 µg/mL
same,Selectivity Index (SI),"FTC133; IC50 Nthy-ori 3-1 / IC50 FTC133, 24 h",6.99
same,Selectivity Index (SI),"FTC133; IC50 Nthy-ori 3-1 / IC50 FTC133, 48 h",14.6
same,IC50,"HTB-140; HTB-140, 24 h",51.4 µg/mL
same,IC50,"HTB-140; HTB-140, 48 h",29.5 µg/mL
same,Selectivity Index (SI),"HTB-140; IC50 HaCaT / IC50 HTB-140, 24 h",0.2
same,Selectivity Index (SI),"HTB-140; IC50 HaCaT / IC50 HTB-140, 48 h",0.2
same,IC50,"Caco-2; Caco-2, 24 h",13 µg/mL
same,IC50,"Caco-2; Caco-2, 48 h",8.3 µg/mL
